Key:
[1] = test system: carrageenan-induced rat paw edema; experiment: carrageenan-induced rat paw edema assay (anti-inflammatory activity); format: in vivo, male Sprague Dawley rats; conditions: for % Inhibition: oral, control 63.9% edema; for anti-inflammatory activity (in words): administered orally
Procedure: Anti-inflamatory activity was determined by carragenaninduced paw edema of laboratory rats. Groups of six male Sprague Dawley rats orally received compound suspended in a 1% aqueous solution of Methocel brand methylcellulose. Control rats received a 0.5% aqueous solution of Methocel only. Two hours later, each rat received a subcutaneous injection of 0.1 ml of a 1% homogenized suspension of carrageenan in the plantar surface of the right hind paw.
Immediately, the volume of the paw was measured by immersing it in mercury to above the lateral mateolus. The mercury in a glass cylinder 25 mm in diameter and 60 mm deep was connected at the bottom on the cylinder by a column of water to a Statham transducer (model P23BB), range 0-5 cm of mercury pressure. The volume was recorded electronically on a Beckman recorder, R511. Three hours later, the inflamed paw volume was measured again, and the change in volume was recorded for each group. Indomethacin,a known anti-inflamatory agent, was included as a standard.

mice [2] = experiment: antihypoxia test: survival duration of mice in a normobaric atmosphere of 96% nitrogen and 4% oxygen at 35° C; format: in vivo; conditions: for Survival Minutes, Compound: N=5, 35° C.
Procedure: N^1 = Number of mice in each group
NS = Not significant, P >0.05
ip = intraperitoneal administration
iv = intravenous administration
The antihypoxia test measures the survival duration of mice in a normobaric atmosphere consisting of 96% nitrogen and 4% oxygen, at 35° C. The mice are considered dead when they stop visible respiration. The test indicates potential clinical utility in situations of central nervous system hypoxia, such as occurs following stroke, cardiac arrest, and traumatic accidents.

mice [3] = experiment: estimated LD50; conditions: ip
minimal neurotoxic dose = experiment: minimal neurotoxic dose; design: species or system mice; conditions: mouse, in vivo, ip

SMILES | % Inhibition ([1]; 25.0 mg/kg) | % Inhibition ([1]; 50.0 mg/kg, Hydroiodide) | % Inhibition ([1]; 100.0 mg/kg) | anti-inflammatory activity (in words) [1] | Survival Minutes, Compound (mice [2]; 1 mg/kg iv, control 2.36, P NS) | Survival Minutes, Compound (mice [2]; 1.5 mg/kg iv, control 2.30, P NS) | prolonged the survival time of mice in the antihypoxia test (mice [2]; 6 mg/kg (i.p.)) | Survival Minutes, Compound (mice [2]; 6 mg/kg ip, control 2.08, P =0.04) | Estimated LD50 (mice [3]) | minimal neurotoxic dose (minimal neurotoxic dose) | % Inhibition ([1]; 50.0 mg/kg) | % Inhibition ([1]; 4.0 mg/kg)
c1nnc2n1C1CC3CC(CC2C3)C1 [Example 1, 1,2,4-Triazolo[4,3-d]-4-azatricyclo[4.3.1.1^3,8]undecane Hydroiodide] | 17.0% | 43.4% | 56.6% | demonstrated activity | – | – | – | – | – | – | – | –
c1nnc2n1C1CC3CC(CC2C3)C1 [Example 2, 1,2,4-Triazolo[4,3-d]-4-azatricyclo[4.3.1.1^3,8]undecane] | 17.0% | – | – | demonstrated activity | 2.34 min | 3.02 min | more than 2 fold | 5.78 min | 12 mg/kg | 6 mg/kg | 28.3% | –
COc1ccc2c(c1)c(CC(=O)O)c(C)n2C(=O)c1ccc(Cl)cc1 [Indomethacin, reference compound] | – | – | – | – | – | – | – | – | – | – | – | 52.8%

Source: patent publication US4762828A, “1,2,4-triazolo[4,3-d]-4-azatricyclo-[4.3.1.1^3,8 ]undecane and 3-substituted derivatives, and intermediates thereof” (Pennwalt Corporation, priority 1987, dated 1988)
